Data on 16 compounds can be found in ChEMBL document CHEMBL2321781, “Synthesis and in vitro antimalarial testing of neocryptolepines: SAR study for improved activity by introduction and modifications of side chains at C2 and C11 on indolo[2,3-b]quinolines” (J Med Chem, 2013).

Structures are written as SMILES. Active and inactive are the calls of the source. The rule behind the calls is not given here.

Test system in one data set: not listed separately
Kind of data set: Selectivity index, ratio of IC50 for rat L6 cells to IC50 for chloroquine-resistant Plasmodium falciparum K1. It counts as toxicity, cell-based. As to conditions: read-out: Ratio IC50.
Consider `Cn1c2nc3ccccc3c-2c(NCCCN)c2ccccc21`, for which the selectivity ratio came out at 9.4.

In the case of `Cn1c2nc3ccccc3c-2c(NCCCNC(=O)Nc2ccccc2)c2cc(Cl)ccc21`, the selectivity ratio was 141.

Another data set relates to Mus musculus. Kind of data set: Toxicity in Plasmodium berghei ANKA infected Swiss mouse assessed as weight loss at 50 mg/kg, ip qd for 4 days. It counts as organism-based. More on the design: dose 50 mg/kg, route intraperitoneal. As to conditions: in vivo, 96 h.
Take `Cn1c2nc3ccccc3c-2c(NCCCNC(=O)Nc2ccccc2)c2cc(Cl)ccc21`: the Activity entry is given as “Toxic”.

The subject of another data set is Plasmodium falciparum. Kind of data set: Antimalarial activity against chloroquine-resistant Plasmodium falciparum K1 after 72 hrs by [3H]hypoxanthine incorporation assay.
Conditions: not given
It counts as functional, organism-based.
In general, IC50 refers to the concentration that inhibits the measured activity by half. A high value points to lower potency. For `C[C@@H]1CC[C@H]2[C@@H](C)C(=O)O[C@@H]3O[C@@]4(C)CC[C@@H]1[C@]32OO4` [ARTEMISININ], the IC50 was 2.8 nM.

Take `Cn1c2nc3ccccc3c-2c(NCCCN)c2ccccc21`: the IC50 amounted to 29.6 nM.

`Cn1c2nc3ccccc3c-2c(NCCCNC(=O)Nc2ccccc2)c2cc(Cl)ccc21` showed an IC50 of 21.8 nM.

Another data set concerns Leishmania donovani. Kind of data set: Antiparasitic activity against Leishmania donovani MHOM/ET/67/L82 axenic amastigotes after 70 hrs by Alamar blue assay. It counts as functional, organism-based. As to conditions: MHOM/ET/67/L82, 70 h. A general note: Resazurin is reduced to fluorescent resorufin, in cell work by metabolically active cells.
`CCCCCCCCCCCCCCCCOP(=O)([O-])OCC[N+](C)(C)C` [MILTEFOSINE] yielded an IC50 of 361 nM.

Test system in another data set: not listed separately
Kind of data set: Toxicity against rat L6 cells after 72 hrs by Alamar blue assay.
Conditions: not given
The format is cell-based.
As to `Cn1c2nc3ccccc3c-2c(NCCCNS(=O)(=O)c2ccc3ccccc3c2)c2ccccc21`, the IC50 at 72 h turned out to be 18.2 nM.

`Cn1c2nc3ccccc3c-2c(NCCCN)c2cc(Cl)ccc21` had an IC50 at 72 h of 269 nM.

`Cn1c2nc3ccccc3c-2c(NCCCCCCN)c2ccccc21`: half-maximal inhibition (IC50 at 72 h) required 693 nM.

Turning to `Cn1c2nc3ccccc3c-2c(NCCCCCCNC(=O)Nc2ccccc2)c2ccccc21`, it took 397 nM to reach half-maximal inhibition (IC50 at 72 h).

Take `Cn1c2nc3ccccc3c-2c(NCCCN)c2cc(F)ccc21`: the IC50 at 72 h was found to be 338 nM.

On to `Cn1c2nc3ccccc3c-2c(NCCCN)c2cc([N+](=O)[O-])ccc21`, for which it took 209 nM to reach half-maximal inhibition (IC50 at 72 h).

In turn, `Cn1c2nc3ccccc3c-2c(NCCCNC(=O)c2cccs2)c2ccccc21` showed an IC50 at 72 h of 4460 nM.

Consider `Cn1c2nc3ccccc3c-2c(NCCCN)c2cc(Br)ccc21`, for which the IC50 at 72 h was 258 nM.

Consider `Cn1c2nc3ccccc3c-2c(NCCCN)c2cc(C(F)(F)F)ccc21`, for which the IC50 at 72 h turned out to be 924 nM.

For the compound `COc1ccc2c(c1)c(NCCCN)c1c3ccccc3nc-1n2C`, the IC50 at 72 h stood at 383 nM.

`Cn1c2nc3ccccc3c-2c(NCCCN)c2ccccc21` returned an IC50 at 72 h of 279 nM.

`Cn1c2nc3ccccc3c-2c(NCCCNC(=O)Nc2ccccc2)c2cc(Cl)ccc21` gave an IC50 at 72 h of 3080 nM.

Turning to `CCCCNC(=O)NCCCNc1c2c3ccccc3nc-2n(C)c2ccccc12`, the IC50 at 72 h was 1740 nM.

A further data set has as its system Trypanosoma cruzi. Kind of data set: Antiparasitic activity against Trypanosoma cruzi Tulahuen C2C4 expressing beta-galactosidase infected in rat L6 cells after 96 hrs. It counts as functional, organism-based. The conditions noted are these: Tulahuen C2C4, L6, 96 h.
On to `O=C(Cn1ccnc1[N+](=O)[O-])NCc1ccccc1` [BENZNIDAZOLE], for which the IC50 came out at 1610 nM.

For a further data set, the system named is Plasmodium falciparum. Kind of data set: microbe, parasite or virus in culture. As to conditions: NF54.
Description: Antimalarial activity against chloroquine-sensitive Plasmodium falciparum NF54 after 72 hrs by [3H]hypoxanthine incorporation assay
The compound `Cn1c2nc3ccccc3c-2c(NCCCNS(=O)(=O)c2ccc3ccccc3c2)c2ccccc21` registered an IC50 of 14.2 nM.

`Cn1c2nc3ccccc3c-2c(NCCCN)c2cc(Cl)ccc21`: the IC50 was determined as 11.8 nM.

As for `Cn1c2nc3ccccc3c-2c(NCCCCCCN)c2ccccc21`, the midpoint of inhibition, the IC50, lay at 98.1 nM.

With `Cn1c2nc3ccccc3c-2c(NCCCCCCNC(=O)Nc2ccccc2)c2ccccc21`, the IC50 stood at 25.8 nM.

`C[C@@H]1CC[C@H]2[C@@H](C)C(=O)O[C@@H]3O[C@@]4(C)CC[C@@H]1[C@]32OO4` [ARTEMISININ]: the IC50 is 4.3 nM.

In turn, `Cn1c2nc3ccccc3c-2c(NCCCN)c2cc(F)ccc21` showed an IC50 of 49.6 nM.

Consider `Cn1c2nc3ccccc3c-2c(NCCCN)c2cc([N+](=O)[O-])ccc21`, for which it took 11.4 nM to reach half-maximal inhibition (IC50).

Compound `Cn1c2nc3ccccc3c-2c(NCCCNC(=O)c2cccs2)c2ccccc21` yielded an IC50 of 258 nM.

Regarding `Cn1c2nc3ccccc3c-2c(NCCCN)c2cc(Br)ccc21`, it took 10.4 nM to reach half-maximal inhibition (IC50).

As to `Cn1c2nc3ccccc3c-2c(NCCCN)c2cc(C(F)(F)F)ccc21`, half-maximal inhibition (IC50) required 10.7 nM.

In turn, `COc1ccc2c(c1)c(NCCCN)c1c3ccccc3nc-1n2C` had an IC50 of 74.8 nM.

The compound `Cn1c2nc3ccccc3c-2c(NCCCN)c2ccccc21` gave an IC50 of 78.8 nM.

`Cn1c2nc3ccccc3c-2c(NCCCNC(=O)Nc2ccccc2)c2cc(Cl)ccc21` yielded an IC50 of 2.2 nM.

`CCCCNC(=O)NCCCNc1c2c3ccccc3nc-2n(C)c2ccccc12` yielded an IC50 of 104 nM.

Another data set relates to Plasmodium berghei. Kind of data set: Antimalarial activity against Plasmodium berghei ANKA infected in Swiss mouse assessed as reduction parasitaemia at 50 mg/kg, ip qd for 4 days measured 24 hrs after last treatment. The format is functional.
Conditions: not given
Take `Cn1c2nc3ccccc3c-2c(NCCCNC(=O)Nc2ccccc2)c2cc(Cl)ccc21`: the outcome was inactive.

Test system in the next data set: not listed separately
Kind of data set: Selectivity index, ratio of IC50 for rat L6 cells to IC50 for chloroquine-sensitive Plasmodium falciparum NF54. The format is toxicity, cell-based. The conditions noted are these: read-out: Ratio IC50.
Turning to `Cn1c2nc3ccccc3c-2c(NCCCNS(=O)(=O)c2ccc3ccccc3c2)c2ccccc21`, the selectivity ratio came to 1.3.

In the case of `Cn1c2nc3ccccc3c-2c(NCCCN)c2cc(Cl)ccc21`, the selectivity ratio turned out to be 22.8.

`Cn1c2nc3ccccc3c-2c(NCCCCCCN)c2ccccc21`: the selectivity ratio turned out to be 7.1.

For `Cn1c2nc3ccccc3c-2c(NCCCCCCNC(=O)Nc2ccccc2)c2ccccc21`, the selectivity ratio is 15.4.

For the compound `Cn1c2nc3ccccc3c-2c(NCCCN)c2cc(F)ccc21`, the selectivity ratio came to 6.8.

In the case of `Cn1c2nc3ccccc3c-2c(NCCCN)c2cc([N+](=O)[O-])ccc21`, the selectivity ratio worked out at 18.3.

For `Cn1c2nc3ccccc3c-2c(NCCCNC(=O)c2cccs2)c2ccccc21`, the selectivity ratio stood at 17.3.

On to `Cn1c2nc3ccccc3c-2c(NCCCN)c2cc(Br)ccc21`, for which the selectivity ratio was 24.8.

Consider `Cn1c2nc3ccccc3c-2c(NCCCN)c2cc(C(F)(F)F)ccc21`, for which the selectivity ratio is 86.3.

`COc1ccc2c(c1)c(NCCCN)c1c3ccccc3nc-1n2C`: the selectivity ratio turned out to be 5.1.

With `Cn1c2nc3ccccc3c-2c(NCCCN)c2ccccc21`, the selectivity ratio was 3.5.

For the compound `Cn1c2nc3ccccc3c-2c(NCCCNC(=O)Nc2ccccc2)c2cc(Cl)ccc21`, the selectivity ratio came out at 1400.

Consider `CCCCNC(=O)NCCCNc1c2c3ccccc3nc-2n(C)c2ccccc12`, for which the selectivity ratio amounted to 16.7.
